Experimental data: patent US7504403B2, “Substituted heterocyclic compounds and methods of use” (Amgen Inc., priority 2004, dated 2009)

Test system: LPS induced TNF release
Test: Lipopolysaccharide-Activated THP1 Cell TNF Production Assay
Type: cell-based
Settings: Homo sapiens, THP-1
Description: Lipopolysaccharide-Activated THP1 Cell TNF Production Assay
THP1 cells are resuspended in fresh THP1 media (RPMI 1640, 10% heat-inactivated FBS, 1×PGS, 1×NEAA, plus 30 μM βME) at a concentration of 1E6/mL. One hundred microliters of cells per well are plated in a polystyrene 96-well tissue culture. One microgram per mL of bacterial LPS is prepared in THP1 media and is transferred to the wells. Test compounds are dissolved in 100% DMSO and are serially diluted 3 fold in a polypropylene 96-well microtiter plate (drug plate). HI control and LO control wells contain only DMSO. One microliter of test compound from the drug plate followed by 10 μL of LPS are transferred to the cell plate. The treated cells are induced to synthesize and secrete TNF-α at 37° C. for 3 h. Forty microliters of conditioned media are transferred to a 96-well polypropylene plate containing 110 μL of ECL buffer (50 mM Tris-HCl pH 8.0, 100 mM NaCl, 0.05% Tween 20, 0.05% NaN3 and 1%FBS) supplemented with 0.44 nM MAB610 monoclonal Ab (R&D Systems), 0.34 nM ruthenylated AF210NA polyclonal Ab (R&D Systems) and 44 μg/mL sheep anti-mouse M280 Dynabeads (Dynal). After a 2 h incubation at room temperature with shaking, the reaction is read on the ECL M8 Instrument (IGEN Inc.). A low voltage is applied to the ruthenylated TNF-α immune complexes, which in the presence of TPA (the active component in Origlo), results in a cyclical redox reaction generating light at […]. The amount of secreted TNF-α in the presence of compound compared with that in the presence of DMSO vehicle alone (HI control) is calculated using the formula: % control (POC)=(cpd−average LO)/(average HI−average LO)*100. Data (consisting of POC and inhibitor concentration in μM) is fitted to a 4-parameter equation (y=A+((B−A)/(1+((x/C)^D))), where A is the minimum y (POC) value, B is the maximum y (POC), C is the x (cpd concentration) at the point of inflection and D is the slope factor) using a Levenburg-Marquardt non-linear regression algorithm.

IC50 [µM] | SMILES
≤ 20 | CCOC(=O)CCC1CN(c2ccnc(NCCc3ccccc3)n2)c2nc(-c3ccccc3)cc(=O)n2C1 (centres unmarked) [Example 54, 3-[6-oxo-1-(2-phenethylamino-pyrimidin-4-yl)-8-phenyl-1,3,4,6-tetrahydro-2H-pyrimido[1,2-a]pyrimidin-3-yl]-propionic acid ethyl ester]
≤ 20 | O=C(O)CCC1CN(c2ccnc(NCCc3ccccc3)n2)c2nc(-c3ccccc3)cc(=O)n2C1 (centres unmarked) [Example 55, 3-[6-Oxo-1-(2-phenethylamino-pyrimidin-4-yl)-8-phenyl-1,3,4,6-tetrahydro-2H-pyrimido[1,2-a]pyrimidin-3-yl]-propionic acid]
≤ 20 | CC(C)NC(C)c1ccc(CCNc2nccc(N3CCC(=O)N4CC=C(c5ccccc5)N=C43)n2)cc1 (centres unmarked) [Example 62, 1-(2-{2[4-(1-Isopropylamino-ethyl)-phenyl]-ethylamino}-pyrimidin-4-yl)-8-phenyl-1,2,3,6-tetrahydro-pyrimido[1,2-a]pyrimidin-4-one]
≤ 20 | CC(Cc1ccc(CN)cc1)Nc1nccc(N2CCC(=O)N3CC=C(c4ccccc4)N=C32)n1 (centres unmarked) [Example 63, 1-{2-[2-(4-Aminomethyl-phenyl)-1-methyl-ethylamino]-pyrimidin-4-yl}-8-phenyl-1,2,3,6-tetrahydro-pyrimido[1,2-a]pyrimidin-4-one]
≤ 20 | CC(N)Cc1ccc(CC(C)Nc2nccc(N3CCC(=O)N4CC=C(c5ccccc5)N=C43)n2)cc1 (centres unmarked) [Example 64, 1-(2-{2-[4-(2-Amino-propyl)-phenyl]-1-methyl-ethylamino}-pyrimidin-4-yl)-8-phenyl-1,2,3,6-tetrahydro-pyrimido[1,2-a]pyrimidin-4-one]
≤ 20 | CC(Cc1cccc(C(C)(C)N)c1)Nc1nccc(N2CCC(=O)N3CC=C(c4ccccc4)N=C32)n1 (centres unmarked) [Example 65, 1-(2-{2-[3-(1-Amino-1-methyl-ethyl)-phenyl]-1-methyl-ethylamino}-pyrimidin-4-yl)-8-phenyl-1,2,3,6-tetrahydro-pyrimido[1,2-a]pyrimidin-4-one]
≤ 20 | CC(Nc1nccc(N2CC(O)Cn3c2nc(-c2ccccc2)cc3=O)n1)c1ccccc1 (centres unmarked) [Example 66, 7-Hydroxy-2-phenyl-9-[2-(1-phenyl-ethylamino)-pyrimidin-4-yl]-6,7,8,9-tetrahydro-pyrimido[1,2-a]pyrimidin-4-one]
≤ 20 | O=c1cc(-c2ccccc2)cc2n1CCCN2c1ccnc(NCCc2ccccc2)n1 [Example 74, 1-(2-Phenethylamino-pyrimidin-4-yl)-8-phenyl-1,2,3,4-tetrahydro-pyrido[1,2-a]pyrimidin-6-one]
≤ 20 | O=c1cc(-c2ccccc2)cc2n1CCCN2c1ccnc(NCCc2ccccc2Cl)n1 [Example 75, 1-{2-[2-(2-Chloro-phenyl)-ethylamino]-pyrimidin-4-yl}-8-phenyl-1,2,3,4-tetrahydro-pyrido[1,2-a]pyrimidin-6-one]
≤ 20 | O=c1cc(-c2ccccc2)cc2n1CCCN2c1ccnc(NCCc2c(Cl)cccc2Cl)n1 [Example 76, 1-{2-[2-(2,6-Dichloro-phenyl)-ethylamino]-pyrimidin-4-yl}-8-phenyl-1,2,3,4-tetrahydro-pyrido[1,2-a]pyrimidin-6-one]
≤ 20 | O=c1cc(-c2ccccc2)cc2n1CCCN2c1ccnc(NCCc2ccc(Cl)cc2Cl)n1 [Example 77, 1-{2-[2-(2,4-Dichloro-phenyl)-ethylamino]-pyrimidin-4-yl}-8-phenyl-1,2,3,4-tetrahydro-pyrido[1,2-a]pyrimidin-6-one]
≤ 20 | C[C@H](Nc1nccc(N2CCCn3c2cc(-c2ccccc2)cc3=O)n1)c1ccccc1 [Example 78]
≤ 20 | C[C@H](CNc1nccc(N2CCCn3c2cc(-c2ccccc2)cc3=O)n1)c1ccccc1 [Example 79]
≤ 20 | COc1ccc([C@H](C)Nc2nccc(N3CCCn4c3cc(-c3ccccc3)cc4=O)n2)cc1 [Example 80, 1-{2-[(1S)-(4-Methoxy-phenyl)-ethylamino]-pyrimidin-4-yl}-8-phenyl-1,2,3,4-tetrahydro-pyrido[1,2-a]pyrimidin-6-one]
≤ 20 | C[C@H](Nc1nccc(N2CCCn3c2cc(-c2ccccc2)cc3=O)n1)c1cccc(Br)c1 [Example 81, 1-{2-(S)-[1-(3-Bromo-phenyl)-ethylamino]-pyrimidin-4-yl}-8-phenyl-1,2,3,4-tetrahydro-pyrido[1,2-a]pyrimidin-6-one]
≤ 20 | C[C@H](Nc1nccc(N2CCCn3c2cc(-c2ccccc2)cc3=O)n1)c1cccc(N2CCNCC2)c1 [Example 82, 8-Phenyl-1-{2-(S)-[1-(3-piperazin-1-yl-phenyl) -ethylamino]-pyrimidin-4-yl}-1,2,3,4-tetrahydro-pyrido[1,2-a]pyrimidin-6-one]
≤ 20 | CC(Cc1cccc(CO)c1)Nc1nccc(N2CCCn3c2cc(-c2ccccc2)cc3=O)n1 (centres unmarked) [Example 83, 1-{2-[2-(3-Hydroxymethyl-phenyl)-1-methyl-ethylamino]-pyrimidin-4-yl}-8-phenyl-1,2,3,4-tetrahydro-pyrido[1,2-a]pyrimidin-6-one]
≤ 20 | CC(Cc1cccc(CN)c1)Nc1nccc(N2CCCn3c2cc(-c2ccccc2)cc3=O)n1 (centres unmarked) [Example 84, 1-{2-[2-(3-Aminomethyl-phenyl)-1-methyl-ethylamino]-pyrimidin-4-yl}-8-phenyl-1,2,3,4-tetrahydro-pyrido[1,2-a]pyrimidin-6-one]
≤ 20 | O=c1cc(-c2ccccc2)cc2n1CCCN2c1cc(NCCc2ccccc2)ncn1 [Example 85, 1-(6-Phenethylamino-pyrimidin-4-yl)-8-phenyl-1,2,3,4-tetrahydro-pyrido[1,2-a]pyrimidin-6-one]
≤ 20 | O=c1cc(-c2ccccc2)cc2n1CCCN2c1cc(NCCc2ccccc2Cl)ncn1 [Example 86, 1-{6-[2-(2-Chloro-phenyl)-ethylamino]-pyrimidin-4-yl}-8-phenyl-1,2,3,4-tetrahydro-pyrido[1,2-a]pyrimidin-6-one]
≤ 20 | O=c1cc(-c2ccccc2)cc2n1CCN2c1ccnc(NCCc2ccccc2)n1 [Example 87, 1-(2-Phenethylamino-pyrimidin-4-yl)-7-phenyl-2,3-dihydro-1H-imidazo[1,2-a]pyridin-5-one]
≤ 20 | CC(Cc1cccc(CO)c1)Nc1nccc(N2CCn3c2cc(-c2ccccc2)cc3=O)n1 (centres unmarked) [Example 88, 1-{2-[2-(3-Hydroxymethyl-phenyl)-1-methyl-ethylamino]-pyrimidin-4-yl}-7-phenyl-2,3-dihydro-1H-imidazo[1,2-a]pyridin-5-one]
≤ 20 | O=c1cc(-c2ccccc2)cc2n1CCN2c1cncc(NCCc2ccccc2)n1 [Example 89, 1-(6-Phenethylamino-pyrazin-2-yl)-7-phenyl-2,3-dihydro-1H-imidazo[1,2-a]pyridin-5-one]
